Numbers after ± are expanded uncertainties.
Settings: Liquid, Closed cell (Static) method

FC1(F)C(F)(F)C(F)(F)C1(F)F [octafluorocyclobutane]
Settings	vapor or sublimation pressure [kPa]
247.9 K	39 ± 3
248.25 K	41 ± 3
248.3 K	40 ± 3
253.38 K	51 ± 3
263 K	81 ± 3
265.93 K	92 ± 3
267.92 K	99 ± 3
269.89 K	110 ± 3
272.9 K	122 ± 3
277.87 K	148 ± 3
282.9 K	180 ± 3
287.89 K	216 ± 3
292.89 K	257 ± 4
303.37 K	362 ± 4
313.09 K	486 ± 4
322.53 K	635 ± 5
335.34 K	889 ± 5
342.37 K	1055 ± 6
352.36 K	1329 ± 7

FC(F)=C(F)F [tetrafluoroethene]
Settings	vapor or sublimation pressure [kPa]
248.2 K	864 ± 7
248.3 K	866 ± 8
253.34 K	1017 ± 8
263 K	1357 ± 10
263.18 K	1367 ± 9
273.14 K	1804 ± 11
282.9 K	2330 ± 12
283.19 K	2340 ± 12

From the NIST ThermoML archive (doi:10.1021/je300217x)
